Test results from patent publication US4550170A, “6-Phenyl-2,3,5,6-tetrahydroimidazo-[2,1-b]-thiazole derivatives” (Institut Organicheskoi Khimii Akademii Nauk Ukrainskoi SSR, priority 1984, dated 1985).
Structures can show the parent of a compound that is named as a salt. Where two headings read alike, the source gives them in different places.

Key:
human tonsillocytes [1] = assay: natural cytotoxicity (natural killers) of human tonsillocytes, 51Cr release; type: cell-based; settings: for Yield of 51Cr from target cells, natural cytotoxicity, average value: (III) significant P below 0.05
From the text: (§1) The cytolytic effect of tonsillocytes was studied by the radioisotope method using Cr^51. On doing so, the deterioration of target cells (chicken's erythrocytes) by tonsil lymphocytes was regarded as spontaneous cytolysis, while the destruction of the target cells loaded, in addition to the isotopic tracer, with homologous antibodies in the sublytic dose was considered as antibody-dependent cytolysis. […] Afterwards they were twice washed by means of Medium 199 using centrifugation (105 g, 10 minutes). […] The degree of destruction of the target cells was determined radiometrically by the outcome of Cr^51 into the liquid phase.

immune system = settings: prior art; cited from earlier work
[2] = system: delayed-type hypersensitivity reaction; assay: delayed-type hypersensitivity reaction to 2,4-dinitrochlorobenzene in guinea pigs; type: in vivo
splenocytes = assay: effect on cyclic nucleotides (c-AMP, c-GMP) and phosphodiesterase of c-AMP; type: cell-based
[3] = prior art, hydrochloride, cited from earlier work
[4] = system: Staphylococcus aureus, Proteum, Bacillus pyocyanes; assay: antibacterial activity in vitro, serial dilutions; type: cell-based; settings: relative to compound (II)
Experimental: In the experiments in vitro the antibacterial activity of the compounds of the present invention was studied. To this end, serial dilutions of compounds (II) and (III) with a concentration of from 1% to 0.00001% were prepared and 0.1 ml of a microbal suspension was added thereto (Staphylococcus aureus, Proteum, Bacillus pyocyanes). The microbal load for staphylococcus was about 1×10^5 cells/ml, for Proteum and Bacillus pyocyanes -1×10^4 c cells/ml. […] The bacteria were incubated along with the compounds according to the present invention at the temperature of 37° C. […] Inoculations were effected by spreading 0.1 ml of a suspension of bacteria in a corresponding dilution of the compounds over the surface of an agar dish using a glass spatula.

[5] = system: virus of vesicular stomatitis; type: cell-based
[6] = system: delayed-type hypersensitivity reaction; assay: delayed-type hypersensitivity reaction to rat's thymocytes in mice (popliteal lymph nodes); type: in vivo; settings: for effect on the development of the delayed-type hypersensitivity reactions: Table 3 (mice and guinea pigs)
human tonsillocytes [7] = assay: antibody-dependent cytotoxicity of human tonsillocytes, 51Cr release; type: cell-based; settings: for minimal effective concentration: Homo sapiens, read-out: concentration stimulating the antibody-dependent cytolytic activity
From the text: as §1, with “On this basis, the effect of one of the lest toxic compound (III) out of those of the present invention was studied for the antibody-dependent cytolytic activity of cells. […] The cytolytic” for “The cytolytic”

[8] = system: IgE antibodies in respiratory organs
Experimental: The local production of IgE-antibodies in trachea and lungs of rats of the lines WAY, August with a mass of 250-300 g was induced by means of a successive (with the interval of 40 minutes) dropping a 0.1% solution of histamine and ambrosia allergen (10,000 PNU/ml) into both nasal passages. […] One day after the administration of the allergen IgE-antibodies were determined in homogenates of trachea and lungs prepared at the rate of 0.1 ml of a physiological solution per 10 mg of the tissue by the method of indirect degranulation of obese cells.

[9] = system: allergic reaction of the delayed type in mice; assay: delayed-type (contact) hypersensitivity reaction to dinitrochlorobenzene, ear thickness in mice; type: in vivo, CBA mice; settings: for Ear thickness, Control, Average value / Ear thickness, Control, Range of fluctuations: control (right) ear; for Ear thickness, Experiment, Average value / Ear thickness, Experiment, Range of fluctuations: test (left) ear
in vivo [10] = settings: rabbit
in vivo [11] = settings: rat, rats
in vivo [12] = settings: mouse, sc
[13] = physical properties of the compounds; type: physicochemical
[14] = 100 μg/ml, negative = test value exceeded the control
[15] = 1 μg/ml, (III) significant P below 0.05
[16] = 10 μg/ml, (III) significant P below 0.05
[17] = 100 μg/ml, levamizole significant P below 0.05
[18] = 100 μg/ml, certainty: (II), (III) below 0.05, (I), levamizole above 0.05
[19] = 500 μg/ml, certainty: all below 0.05
[20] = second levamizole line, printed 2.5 mg/kg

Structure (SMILES): c1ccc([C@H]2CN3CCSC3=N2)cc1 [levamizole, L-(-)-2,3,5,6-tetrahydro-6-phenylimidazo-[2,1-b]-thiazole hydrochloride, reference compound]
- Yield of 51Cr from target cells, natural cytotoxicity, range of fluctuations (human tonsillocytes [1]; 1 μg/ml): 3.0-41.0%
- Yield of 51Cr from target cells, natural cytotoxicity, average value (human tonsillocytes [1]; 1 μg/ml): 16.2%
- Yield of 51Cr from target cells, natural cytotoxicity, range of fluctuations (human tonsillocytes [1]; 10 μg/ml): 5.0-53.0%
- Yield of 51Cr from target cells, natural cytotoxicity, average value (human tonsillocytes [1]; 10 μg/ml): 18.4%
- Yield of 51Cr from target cells, natural cytotoxicity, range of fluctuations (human tonsillocytes [1]; 100 μg/ml): 5.0-49.0%
- Yield of 51Cr from target cells, natural cytotoxicity, average value (human tonsillocytes [1]; 100 μg/ml): 20.5%
- activity of natural killers of tonsil cells (human tonsillocytes [1]; levamizole): not noticeably changed
- effect in respect of various immunological responses (immune system): stimulating effect in respect of various immunological responses
- Difference in temperature of the pad surfaces, Average value [2, 14]: -1.3 ± 0.06 °C
- Difference in thickness of control and test talipes, Average value [2, 14]: -0.75 ± 0.08 mm
- Difference in temperature of the pad surfaces, Average value ([2]; 1,000 μg/ml): +1.1 ± 0.11 °C
- Difference in thickness of control and test talipes, Average value ([2]; 1,000 μg/ml): +0.51 ± 0.064 mm
- concentrations of c-AMP and c-GMP (splenocytes): reciprocal variations of concentrations of c-AMP and c-GMP
- toxicity and side effects [3]: high toxicity and a high frequency of the observed side effects
- toxicity and side effects ([3]; listed as Levamizole): toxic and has diverse side effects
- antibacterial activity lower by a factor of [4]: 2
- Degree of inhibition of the virus reproduction ([5]; 1 μg/ml): 0 times
- Degree of inhibition of the virus reproduction ([5]; 10 μg/ml): 10 times
- effect on the development of the delayed-type hypersensitivity reactions ([6]; 100 μg/ml): surely stimulates
- Difference in masses of popliteal lymph nodes in the control and test limb, Average value [6, 14]: -0.9 ± 0.13 mg
- Difference in masses of popliteal lymph nodes in the control and test limb, Average value ([6]; 500 μg/ml): +1.0 ± 0.13 mg
- Difference in masses of popliteal lymph nodes in the control and test limb, Average value ([6]; 1,000 μg/ml): +1.2 ± 0.12 mg
- effect on the development of the delayed-type hypersensitivity reactions ([6]; 500 and 1,000 μg/ml): effectively inhinits
- Yield of 51Cr from target cells, antibody dependent cytotoxicity, range of fluctuations (human tonsillocytes [7]; 1 μg/ml): 1.0-32.0%
- Yield of 51Cr from target cells, antibody dependent cytotoxicity, average (human tonsillocytes [7]; [15]): 14.0%
- Yield of 51Cr from target cells, antibody dependent cytotoxicity, range of fluctuations (human tonsillocytes [7]; 10 μg/ml): 1.0-36.0%
- Yield of 51Cr from target cells, antibody dependent cytotoxicity, average (human tonsillocytes [7]; [16]): 14.2%
- Yield of 51Cr from target cells, antibody dependent cytotoxicity, range of fluctuations (human tonsillocytes [7]; 100 μg/ml): 8.0-39.0%
- Yield of 51Cr from target cells, antibody dependent cytotoxicity, average (human tonsillocytes [7]; [17]): 22.8%
- minimal effective concentration (human tonsillocytes [7]): 100 µg/mL
- Percent of degranulated mastocytes, Lungs [8, 18]: 18.1 ± 1.9%
- Percent of degranulated mastocytes, Trachea [8, 18]: 17.3 ± 1.8%
- Percent of degranulated mastocytes, Lungs [8, 19]: 6.1 ± 1.1%
- Percent of degranulated mastocytes, Trachea [8, 19]: 7.4 ± 0.2%
- concentration inhibiting the formation of the IgE-antibodies in the respiratory organs ([8]; rat, in vivo): 500 µg/mL
- Ear thickness, Control, Average value ([9]; 2.5 mg/kg per os): 162.3 μm
- Ear thickness, Control, Range of fluctuations ([9]; 2.5 mg/kg per os): 130-200 μm
- Ear thickness, Experiment, Average value ([9]; 2.5 mg/kg per os): 210.0 μm
- Ear thickness, Experiment, Range of fluctuations ([9]; 2.5 mg/kg per os): 160-280 μm
- dose inhibiting the development of the contact hypersensitivity ([9]; per os): 25 mg/kg
- Ear thickness, Control, Average value [9, 20]: 179.2 μm
- Ear thickness, Control, Range of fluctuations [9, 20]: 160-190 μm
- Ear thickness, Experiment, Average value [9, 20]: 179.2 μm
- Ear thickness, Experiment, Range of fluctuations [9, 20]: 170-190 μm

Structure (SMILES): NC(=O)C[N+]1=C2SCCN2CC1c1ccccc1 (stereo not shown) [Compound (III), 2,3,5,6-tetrahydro-6-phenyl-7-carbamoylmethylimidazo-[2,1-b]-thiazolium bromide]
- Yield of 51Cr from target cells, natural cytotoxicity, range of fluctuations (human tonsillocytes [1]; 1 μg/ml): 7.0-60.0%
- Yield of 51Cr from target cells, natural cytotoxicity, average value (human tonsillocytes [1]; 1 μg/ml): 30.6%
- Yield of 51Cr from target cells, natural cytotoxicity, range of fluctuations (human tonsillocytes [1]; 10 μg/ml): 7.0-42.0%
- Yield of 51Cr from target cells, natural cytotoxicity, average value (human tonsillocytes [1]; 10 μg/ml): 28.8%
- Yield of 51Cr from target cells, natural cytotoxicity, range of fluctuations (human tonsillocytes [1]; 100 μg/ml): 1.0-40.0%
- Yield of 51Cr from target cells, natural cytotoxicity, average value (human tonsillocytes [1]; 100 μg/ml): 24.8%
- LD50 (in vivo [10]; po): 3330 mg/kg
- LD50 (in vivo [10]; sc): 317 mg/kg
- antibacterial activity lower by a factor of [4]: 2
- Degree of inhibition of the virus reproduction ([5]; 1 μg/ml): 10 times
- Degree of inhibition of the virus reproduction ([5]; 10 μg/ml): 100 times
- LD50 (in vivo [11]; po, LD50 upon peroral administration, female): 3500 mg/kg
- LD50 (in vivo [11]; po, LD50 upon peroral administration, male): 5750 mg/kg
- LD50 (in vivo [11]; sc, LD50 upon subcutaneous injection, female): 1420 mg/kg
- LD50 (in vivo [11]; sc, LD50 upon subcutaneous injection, male): 2580 mg/kg
- LD50 (in vivo [12]): 1020 mg/kg
- solubility in acetone ([13]; acetone): only slightly soluble
- solubility in benzene ([13]; benzene): only slightly soluble
- solubility in lower alcohols ([13]; lower alcohols): well soluble
- solubility in water ([13]; water): well soluble
- Yield of 51Cr from target cells, antibody dependent cytotoxicity, range of fluctuations (human tonsillocytes [7]; 1 μg/ml): 10.0-57.0%
- Yield of 51Cr from target cells, antibody dependent cytotoxicity, average (human tonsillocytes [7]; [15]): 23.2%
- Yield of 51Cr from target cells, antibody dependent cytotoxicity, range of fluctuations (human tonsillocytes [7]; 10 μg/ml): 13.0-36.0%
- Yield of 51Cr from target cells, antibody dependent cytotoxicity, average (human tonsillocytes [7]; [16]): 22.6%
- Yield of 51Cr from target cells, antibody dependent cytotoxicity, range of fluctuations (human tonsillocytes [7]; 100 μg/ml): 4.0-40.0%
- Yield of 51Cr from target cells, antibody dependent cytotoxicity, average (human tonsillocytes [7]; [17]): 19.1%
- minimal effective concentration (human tonsillocytes [7]): 1 to 10 µg/mL
- stimulating concentration lower as compared to levamizole, antibody-dependent cytolytic activity (human tonsillocytes [7]; ratio to levamizole): 10-100 times
- Percent of degranulated mastocytes, Lungs [8, 18]: 10.6 ± 3.9%
- Percent of degranulated mastocytes, Trachea [8, 18]: 9.1 ± 2.1%
- Percent of degranulated mastocytes, Lungs [8, 19]: 6.1 ± 1.1%
- Percent of degranulated mastocytes, Trachea [8, 19]: 7.1 ± 1.7%
- Ear thickness, Control, Average value ([9]; 2.5 mg/kg per os): 176.7 μm
- Ear thickness, Control, Range of fluctuations ([9]; 2.5 mg/kg per os): 110-210 μm
- Ear thickness, Experiment, Average value ([9]; 2.5 mg/kg per os): 184.4 μm
- Ear thickness, Experiment, Range of fluctuations ([9]; 2.5 mg/kg per os): 110-220 μm
- Ear thickness, Control, Average value ([9]; 25 mg/kg per os): 184.4 μm
- Ear thickness, Control, Range of fluctuations ([9]; 25 mg/kg per os): 170-200 μm
- Ear thickness, Experiment, Average value ([9]; 25 mg/kg per os): 190.0 μm
- Ear thickness, Experiment, Range of fluctuations ([9]; 25 mg/kg per os): 170-200 μm
- dose sufficient for inhibition of the contact hypersensitivity, lower than that of levamizole ([9]; ratio to levamizole): 10 times
